Data on 17 compounds can be found in US11168081B2, “Alkaloid derivative having angiogenesis inhibitory effect, and pharmaceutical composition containing same” (SEOUL NATIONAL UNIVERSITY R&DB FOUNDATION, priority 2017, dated 2021).

Data set [1] deals with HUVECs. Put plainly: In vitro tube formation assay. The settings on record: for pIC50: Homo sapiens, HUVEC, HUVECs on Matrigel, 8 hours, VEGF-induced tube formation; for Selectivity Index (SI): ratio of the IC50 for HUVEC cell growth to the IC50 for tube formation. The data set is classed as cell-based, human. As for the experimental part:
Matrigel (70 μl/well) was coated onto a 96-well plate and polymerized for 30 minutes at 37° C. under a 5% CO2 atmosphere. HUVECs (1.5×10^4 cells/well) and various concentrations of the compound were seeded onto each well of the Matrigel-coated 96-well plate. The cells were then incubated for 8 hours at 37° C. under a 5% CO2 atmosphere. The formation of endothelial cell tubular structures was visualized under an inverted microscope and photographed (Olympus Optical Co. Ltd., Tokyo, Japan). The inhibition rate of tube formation was determined using the following equation. tube formation inhibition rate (%)=[1−(average tube numbersample−average tube numberVEGF(−))/(average tube numberVEGF(+)−average tube numberVEGF(−))]×100 [Equation 1]
The IC50 value was calculated using nonlinear regression analysis using TableCurve 2D v5.01 software (Systat Software Inc., Richmond, Calif., USA).
(§1) The same experiment was carried out for sunitinib as a positive control.
The endothelial cell tubular structure formation assay was performed in the same manner as in the Experimental Example 1.

In data set [2] the test system is HUVECs. Description: HUVEC cell growth assay (MTT). The data set is classed as cell-based, human. The settings on record: for pIC50: Homo sapiens, HUVEC, MTT, 24 hours, in the presence of VEGF (50 ng/mL). As to the method: Human umbilical vascular endothelial cells (HUVECs) were obtained from the ATCC (Rockville, Md.) and cultured in EGM-2 (Lonza, Walkersville, Md.) supplemented with 10% FBS at 37° C. under a 5% CO2 atmosphere.
Cell growth was assessed by MTT assay. HUVECs (8×10^3 cells/well) were seeded onto a 96-well plate with EGM-2 medium supplemented with 10% FBS for 24 hours. The next day, the culture medium was removed, and the cells were then incubated with serum-free medium for 12 hours. Following serum starvation, the cells were cultured in fresh 2% FBS/EBM-2 medium containing various concentrations of the test compound for 24 hours in the presence of VEGF (50 ng/mL). After the incubation, an MTT solution was added, and the plate was incubated for additional 4 hours. The formazan product was dissolved in DMSO, and the absorbance was detected at 570 nm using a VersaMax ELISA microplate reader (Molecular Devices, Sunnyvale, Calif.).
as §1

In data set [3] the test system is human umbilical vascular endothelial cell (HUVEC). The following applies: Korean Patent Application Publication No. 10-2012-0122705; cited from earlier work.

pIC50: −log10 of the molar value. Bounds are passed on as bounds.

As to `CCc1ccc2nc(C(c3ccc(O)c(O)c3)n3cc(CCN(C)C)nn3)sc2c1` (centres unmarked) [Compound I-1, 4-((4-(2-(dimethylamino)ethyl)-1H-1,2,3-triazol-1-yl)(6-ethylbenzo[d]thiazol-2-yl)methyl)benzene-1,2-diol], the pIC50 in the data set on HUVECs [1] was 5.52; in the data set with HUVECs [2], 4.43. The “Selectivity Index (SI)” value in the data set on HUVECs [1] turned out to be 12.3.
In the same order, the values of `CCc1ccc2nc(C(c3ccc(OC)c(OC)c3)n3cc(CCN(C)C)nn3)sc2c1` (centres unmarked) [Compound I-2, 2-(1-((3,4-dimethoxyphenyl)(6-ethylbenzo[d]thiazol-2-yl)methyl)-1H-1,2,3-triazol-4-yl)-N,N-dimethylethan-1-amine] are 5.08, 4.03 and 11.3.
In the same order, the values of `CCCNCCc1cn(C(c2ccc(OC)c(OC)c2)c2nc3ccc(CC)cc3s2)nn1` (centres unmarked) [Compound I-3, N-(2-(1-((3,4-dimethoxyphenyl)(6-ethylbenzo[d]thiazol-2-yl)methyl)-1H-1,2,3-triazol-4-yl)ethyl)propan-1-amine] are 5.86, 4.41 and 27.8.
`CCc1ccc2nc(C(c3ccc(OC)c(OC)c3)n3cc(CCNC4CCCC4)nn3)sc2c1` (centres unmarked) [Compound I-4, N-(2-(1-((3,4-dimethoxyphenyl)(6-ethylbenzo[d]thiazol-2-yl)methyl)-1H-1,2,3-triazol-4-yl)ethyl)cyclopentanamine]: the results for the pIC50 in the data set on HUVECs [1] and in the data set on HUVECs [2] were 5.99 and 4.71, respectively. Besides, the “Selectivity Index (SI)” value in the data set with HUVECs [1] is 19.0.
Taken in the same sequence, the figures for `CCc1ccc2nc(C(c3ccc(OC)c(OC)c3)n3cc(CCN4CCCC4)nn3)sc2c1` (centres unmarked) [Compound I-5, 2-((3,4-dimethoxyphenyl)(4-(2-(pyrrolidin-1-yl)ethyl)-1H-1,2,3-triazol-1-yl)methyl)-6-ethylbenzo[d]thiazole] were 5.55, 4.15 and 24.8.
For `CCc1ccc2nc(C(c3ccc(OC)c(OC)c3)n3cc(CCN4CCOCC4)nn3)sc2c1` (centres unmarked) [Compound I-6, 4-(2-(1-((3,4-dimethoxyphenyl)(6-ethylbenzo[d]thiazol-2-yl)methyl)-1H-1,2,3-triazol-4-yl)ethyl)morpholine], the pIC50 with HUVECs [1] was 5.41; in the data set on HUVECs [2], below 4.00.
On to `CCc1ccc2cc(C(c3ccc(O)c(O)c3)n3cc(CCN(C)C)nn3)oc2c1` (centres unmarked) [Compound I-8, 4-((4-(2-(dimethylamino)ethyl)-1H-1,2,3-triazol-1-yl)(6-ethylbenzofuran-2-yl)methyl)benzene-1,2-diol], for which, in the data set on HUVECs [1], the pIC50 was 5.21 and the “Selectivity Index (SI)” value turned out to be 3.61. Further, the pIC50 with HUVECs [2] was 4.66.
For the compound `CCc1ccc2nc(C(c3ccc(O)c(O)c3)n3cc(CCN(C)C)nn3)oc2c1` (centres unmarked) [Compound I-9, 4-((4-(2-(dimethylamino)ethyl)-1H-1,2,3-triazol-1-yl)(6-ethylbenzo[d]oxazol-2-yl)methyl)benzene-1,2-diol], the pIC50 in the data set on HUVECs [1] is below 4.70; with HUVECs [2], below 4.00.
On to `CCc1ccc2nc(C(c3ccc(OC)c(OC)c3)n3cnc(CCN(C)C)c3)sc2c1` (centres unmarked) [Compound I-10, 2-(1-((3,4-dimethoxyphenyl)(6-ethylbenzo[d]thiazol-2-yl)methyl)-1H-imidazol-4-yl)-N,N-dimethylethan-1-amine], for which the negative-log IC50 (pIC50) was 5.31 in the data set on HUVECs [1] and below 4.00 with HUVECs [2].
For `CCCN(CCC)CCc1cn(C(c2ccc(OC)c(OC)c2)c2nc3ccc(CC)cc3s2)cn1` (centres unmarked) [Compound I-11, N-(2-(1-((3,4-dimethoxyphenyl)(6-ethylbenzo[d]thiazol-2-yl)methyl)-1H-imidazol-4-yl)ethyl)-N-propylpropan-1-amine], in the data set on HUVECs [1], the pIC50 was 5.74 and the “Selectivity Index (SI)” value came to 21.18. Also, in the data set with HUVECs [2], the pIC50 was 4.41.
Taken in the same sequence, the figures for `CCc1ccc2nc(C(c3ccc(OC)c(OC)c3)n3cnc(CCN4CCCCC4)c3)sc2c1` (centres unmarked) [Compound I-12, 2-((3,4-dimethoxyphenyl)(4-(2-(piperidin-1-yl)ethyl)-1H-imidazol-1-yl)methyl)-6-ethylbenzo[d]thiazole] were 5.47, 22.23 and 4.12.
With `CCc1ccc2nc(C(c3ccc(OC)c(OC)c3)n3cnc(CCNC4CCCC4)c3)sc2c1` (centres unmarked) [Compound I-13, N-(2-(1-((3,4-dimethoxyphenyl)(6-ethylbenzo[d]thiazol-2-yl)methyl)-1H-imidazol-4-yl)ethyl)cyclopentanamine], in the data set with HUVECs [1], the pIC50 was 5.81 and the “Selectivity Index (SI)” value is reported as 19.63. Further, the negative logarithm of the IC50 (pIC50) with HUVECs [2] is 4.51.
Taken in the same sequence, the figures for `CCc1ccc2nc(C(c3ccc(OC)c(OC)c3)n3cnc(CCN4CCCC4)c3)sc2c1` (centres unmarked) [Compound I-14, 2-((3,4-dimethoxyphenyl)(4-(2-(pyrrolidin-1-yl)ethyl)-1H-imidazol-1-yl)methyl)-6-ethylbenzo[d]thiazole] were 5.82, 62.56 and 4.02.
Taken in the same sequence, the figures for `CCc1ccc2nc(C(c3ccc(OC)c(OC)c3)n3cc(CN4CCCCC4)nn3)sc2c1` (centres unmarked) [Compound I-15, 2-((3,4-dimethoxyphenyl)(4-(piperidin-1-ylmethyl)-1H-1,2,3-triazol-1-yl)methyl)-6-ethylbenzo[d]thiazole] were 5.61, above 40.65 and below 4.00.
For `CCc1ccc2nc(C(c3ccc(OC)c(OC)c3)n3cc(CCCN4CCCCC4)nn3)sc2c1` (centres unmarked) [Compound I-16, 2-((3,4-dimethoxyphenyl)(4-(3-(piperidin-1-yl)propyl)-1H-1,2,3-triazol-1-yl)methyl)-6-ethylbenzo[d]thiazole], in the data set on HUVECs [1], the pIC50 is 5.64 and the “Selectivity Index (SI)” value is 13.38. Also, in the data set with HUVECs [2], the pIC50 is 4.52.
Take `CCN(CC)CCNC(=O)c1c(C)[nH]c(/C=C2\C(=O)Nc3ccc(F)cc32)c1C` [Sunitinib, sunitinib, reference compound]: in the data set with HUVECs [1], the pIC50 was 6.26 and the “Selectivity Index (SI)” value was 18.2. The pIC50 in the data set on HUVECs [2] was 5.00. The “higher inhibitory effect on the cell growth of HUVECs” value in the data set with HUVECs [2] (sunitinib relative to compound (I-7)) is reported as 4.8 fold.
Take `CN(C)CCc1cn(C(c2ccc(O)c(O)c2)C2Oc3ccc(C=COS(=O)(=O)[O-])cc3O2)cn1.[Na+]` (centres unmarked) [wondonin, Wondonin]: the “inhibition of human umbilical vascular endothelial cell (HUVEC)” value in data set [3] was “does not inhibit”.

What is called pIC50 is −log10 of the IC50, conventionally taken in molar units.
